Laboratory results: US11542273B2, “Amide compound having bet proteolysis-inducing action and medicinal application thereof” (MITSUBISHI TANABE PHARMA CORPORATION, priority 2018, dated 2023)

Key:
[1] = system: human prostate cancer LNCaP cells; assay: Cytotoxic action on cancer cells (WST-8, 96 hr); type: cell-based; conditions: Homo sapiens, LNCaP, 96 h, read-out: LNCaP cytotoxic activity: IC50
Protocol: The cytotoxic action of the compound of the present invention against human cancer cells was evaluated in vitro. In this experiment, (+)-JQ1 (Nature volume 468, pages 1067-1073 (23 Dec. 2010)) known to have an inhibitory activity on the binding of BRD4 protein and a ligand therefor was used as a positive control drug. Respective cells were suspended in 10% FBS/RPMI1640, seeded in a 96 well plate and cultured at 5% CO2, 37° C. overnight. A test compound dissolved in DMSO was diluted with 10% FBS/RPMI1640 and added and the cells were further cultured for 96 hr. After culturing, the viable cell number was measured using a cell number measurement WST-8 kit (Kishida Chemical Co., Ltd.). As a control, the measurement was performed under conditions free of the test compound. The cytotoxic activity of the compound of the present invention against human prostate cancer LNCaP cells is shown in IC50 value in Table 1. […] It was calculated from the straight line connecting the cell survival rate at two points enclosing the 50% cell survival rate and the compound concentration. In addition, the cytotoxic activity against respective cancer cells of human acute myeloid leukemia MV-4-11 cell, human chronic myeloid leukemia K562 cell, human multiple myeloma MM.1S cell, human diffuse large B-cell lymphoma SU-DHL-6 cell, human T-cell leukemia Jurkat cells, human Burkitt lymphoma Raji cell, human castration-resistant prostate cancer PC-3 cell, human ovarian cancer A2780 cell, human bladder cancer 5637 cell, human breast cancer ZR-75-1 cell, human triple negative breast cancer MDA-MB-231 cell, human uterine sarcoma MES-SA cell, human gastric cancer SNU-16 cell, human non-small cell lung cancer NCI-H1975 cell, human small cell lung cancer NCI-H82 cell, human large cell lung cancer NCI-H460 cell, human colorectal cancer HCT116 cell, human glioma U-87 MG cell, human pancreatic cancer AsPC-1 cell, and human liver cancer Hep G2 cell is shown in IC50 value in Table 2.

BRD4 protein = BRD4 protein (Homo sapiens (Human), UniProt O60885); assay: BRD4 protein degradation inducing action in cancer cells (immunofluorescence, Operetta); type: cell-based; conditions: LNCaP cells, 6 hr treatment, fluorescence intensity
Protocol: The degradation inducing action of the compound of the present invention on BRD4 protein in cancer cells was evaluated in vitro using human prostate cancer LNCaP cells. LNCaP cells were suspended in 10% FBS/RPMI1640, seeded in a 96 well Cell carrier plate (Perkin Elmer) and cultured at 5% CO2, 37° C. overnight. A test compound dissolved in DMSO was diluted with 10% FBS/RPMI1640 and added and the cells were further cultured for 6 hr. After culturing, the cells were immobilized with 4% para-formaldehyde/PBS and further subjected to a permeation treatment with 0.25% Triton X-100/PBS. Thereafter, the cells were blocked with 10% BSA/PBS, a solution containing Anti-Brd4 antibody (Abcam) or Anti-BRD4 (Sigma-Aldrich) as the primary antibody was added and the cells were incubated at 4° C. overnight. Thereafter, as the secondary antibody, a solution containing secondary antibody A shown below was added to Example compounds 1-190, 223 and 224, and a solution containing secondary antibody B shown below was added to Example compounds 191-222, and 0.5 μg/mL Hoechst 33342 (Sigma-Aldrich) and 14 μM Acti-Stain 555 Fluorescent Phalloidin (Cytoskeleton) were further added. After incubation for 1 hr, BRD4 protein amount was measured by Operetta (Perkin Elmer) as fluorescence intensity.
• Anti-Rabbit IgG(H+L), F(ab′)2 Fragment (Alexa Fluor 488 Conjugate) (Cell Signaling Technology), fluorescence intensity was measured at excitation: 495 nm, emission: 519 nm. Secondary Antibody B • Goat anti-Rabbit IgG(H+L) Cross-Adserbed Secondary Antibody (Alexa Fluor 546) (Thermo Fisher Scientific) fluorescence intensity was measured at excitation: 560 nm, emission: 572 nm.
The BRD4 protein degradation inducing activity of the compound of the present invention in LNCaP cells is shown in DC50 value in Table 3. The DC50 value is a concentration of the compound showing 50% fluorescence intensity when the fluorescence intensity thereof under compound untreated condition is 100%. It was calculated from the straight line connecting the fluorescence intensity at two points enclosing the 50% fluorescence intensity and the compound concentration.

Row | SMILES | IC50 [1] | DC50 (BRD4 protein)
1 | COC(=O)C[C@@H]1N=C(c2ccc(-c3ccc(NCC(=O)N[C@H](C(=O)N4C[C@H](O)C[C@H]4C(=O)N[C@@H](C)c4ccc(-c5scnc5C)cc4)C(C)(C)C)cc3)cc2)c2c(sc(C)c2C)-n2c(C)nnc21 [Example 45, methyl [(6S)-4-(4′-{[2-({(2S)-1-[(2S,4R)-4-hydroxy-2-({(1S)-1-[4-(4-methyl-1,3-thiazol-5-yl)phenyl]ethyl}carbamoyl)pyrrolidin-1-yl]-3,3-dimethyl-1-oxobutan-2-yl}amino)-2-oxoethyl]amino}[1,1′-biphenyl]-4-yl)-2,3,9-trimethyl-6H-thieno[3,2-f][1,2,4]triazolo[4,3-a] [1,4]diazepin-6-yl]acetate] | 320 pM | 51 pM
2 | COC(=O)C[C@@H]1N=C(c2ccc(Nc3cccc(OCC(=O)N[C@H](C(=O)N4C[C@H](O)C[C@H]4C(=O)N[C@@H](C)c4ccc(-c5scnc5C)cc4)C(C)(C)C)c3)cc2)c2c(sc(C)c2C)-n2c(C)nnc21 [Example 47, methyl [(6S)-4-(4-{3-[2-({(2S)-1-[(2S,4R)-4-hydroxy-2-({(1S)-1-[4-(4-methyl-1,3-thiazol-5-yl)phenyl]ethyl}carbamoyl)pyrrolidin-1-yl]-3,3-dimethyl-1-oxobutan-2-yl}amino)-2-oxoethoxy]anilino}phenyl)-2,3,9-trimethyl-6H-thieno[3,2-f][1,2,4]triazolo[4,3-a][1,4]diazepin-6-yl]acetate] | 420 pM | 450 pM
3 | COC(=O)C[C@@H]1N=C(c2ccc(-c3ccc(OCC(=O)N[C@H](C(=O)N4C[C@H](O)C[C@H]4C(=O)N[C@@H](C)c4ccc(-c5scnc5C)cc4)C(C)(C)C)cc3C)cc2)c2c(sc(C)c2C)-n2c(C)nnc21 [Example 49, methyl [(6S)-4-{4′-[2-({(2S)-1-[(2S,4R)-4-hydroxy-2-({(1S)-1-[4-(4-methyl-1,3-thiazol-5-yl)phenyl]ethyl}carbamoyl)pyrrolidin-1-yl]-3,3-dimethyl-1-oxobutan-2-yl}amino)-2-oxoethoxy]-2′-methyl[1,1′-biphenyl]-4-yl}-2,3,9-trimethyl-6H-thieno[3,2-f][1,2,4]triazolo[4,3-a] [1,4]diazepin-6-yl]acetate] | 120 pM | 240 pM
4 | COC(=O)C[C@@H]1N=C(c2ccc(-c3ccc(OC(C)C(=O)N[C@H](C(=O)N4C[C@H](O)C[C@H]4C(=O)N[C@@H](C)c4ccc(-c5scnc5C)cc4)C(C)(C)C)cc3)cc2)c2c(sc(C)c2C)-n2c(C)nnc21 (stereo partly drawn) [Example 50, methyl [(6S)-4-(4′-{[1-({(2S)-1-[(2S,4R)-4-hydroxy-2-({(1S)-1-[4-(4-methyl-1,3-thiazol-5-yl)phenyl]ethyl}carbamoyl)pyrrolidin-1-yl]-3,3-dimethyl-1-oxobutan-2-yl}amino)-1-oxopropan-2-yl]oxy}[1,1′-biphenyl]-4-yl)-2,3,9-trimethyl-6H-thieno[3,2-f][1,2,4]triazolo[4,3-a] [1,4]diazepin-6-yl]acetate] | 250 pM | 610 pM
5 | COC(=O)C[C@@H]1N=C(c2ccc(-c3ccc(SCC(=O)N[C@H](C(=O)N4C[C@H](O)C[C@H]4C(=O)N[C@@H](C)c4ccc(-c5scnc5C)cc4)C(C)(C)C)cc3)cc2)c2c(sc(C)c2C)-n2c(C)nnc21 [Example 53, methyl [(6S)-4-(4′-{[2-({(2S)-1-[(2S,4R)-4-hydroxy-2-({(1S)-1-[4-(4-methyl-1,3-thiazol-5-yl)phenyl]ethyl}carbamoyl)pyrrolidin-1-yl]-3,3-dimethyl-1-oxobutan-2-yl}amino)-2-oxoethyl]sulfanyl}[1,1′-biphenyl]-4-yl)-2,3,9-trimethyl-6H-thieno[3,2-f][1,2,4]triazolo[4,3-a] [1,4]diazepin-6-yl]acetate] | 200 pM | 91 pM
6 | COC(=O)C[C@@H]1N=C(c2ccc(-c3cccc(C(=O)N[C@H](C(=O)N4C[C@H](O)C[C@H]4C(=O)N[C@@H](C)c4ccc(-c5scnc5C)cc4)C(C)(C)C)c3)cc2)c2c(sc(C)c2C)-n2c(C)nnc21 [Example 60, methyl {(6S)-4-[3′-({(2S)-1-[(2S,4R)-4-hydroxy-2-({(1S)-1-[4-(4-methyl-1,3-thiazol-5-yl)phenyl]ethyl}carbamoyl)pyrrolidin-1-yl]-3,3-dimethyl-1-oxobutan-2-yl}carbamoyl)[1,1′-biphenyl]-4-yl]-2,3,9-trimethyl-6H-thieno[3,2-f][1,2,4]triazolo[4,3-a][1,4]diazepin-6-yl}acetate] | 120 pM | 740 pM
7 | COC(=O)C[C@@H]1N=C(c2ccc(-c3ccc(OCC(=O)N[C@H](C(=O)N4C[C@H](O)C[C@H]4C(=O)N[C@@H](C)c4ccc(-c5scnc5C)cc4)C(C)(C)C)nc3)cc2)c2c(sc(C)c2C)-n2c(C)nnc21 [Example 63, methyl [(6S)-4-(4-{6-[2-({(2S)-1-[(2S,4R)-4-hydroxy-2-({(1S)-1-[4-(4-methyl-1,3-thiazol-5-yl)phenyl]ethyl}carbamoyl)pyrrolidin-1-yl]-3,3-dimethyl-1-oxobutan-2-yl}amino)-2-oxoethoxy]pyridin-3-yl}phenyl)-2,3,9-trimethyl-6H-thieno[3,2-f][1,2,4]triazolo[4,3-a][1,4]diazepin-6-yl]acetate] | 37 pM | 110 pM
8 | COC(=O)C[C@@H]1N=C(c2ccc(-c3cc(C(=O)N[C@H](C(=O)N4C[C@H](O)C[C@H]4C(=O)N[C@@H](C)c4ccc(-c5scnc5C)cc4)C(C)(C)C)ccc3F)cc2)c2c(sc(C)c2C)-n2c(C)nnc21 [Example 106, methyl {(6S)-4-[2′-fluoro-5′-({(2S)-1-[(2S,4R)-4-hydroxy-2-({(1S)-1-[4-(4-methyl-1,3-thiazol-5-yl)phenyl]ethyl}carbamoyl)pyrrolidin-1-yl]-3,3-dimethyl-1-oxobutan-2-yl}carbamoyl)[1,1′-biphenyl]-4-yl]-2,3,9-trimethyl-6H-thieno[3,2-f][1,2,4]triazolo[4,3-a][1,4]diazepin-6-yl}acetate] | 580 pM | 600 pM
9 | COC(=O)C[C@@H]1N=C(c2ccc(-c3cccc(C(=O)N[C@H](C(=O)N4C[C@H](O)C[C@H]4C(=O)N[C@@H](C)c4ccc(-c5scnc5C)cc4)C(C)(C)C)n3)cc2)c2c(sc(C)c2C)-n2c(C)nnc21 [Example 113, methyl [(6S)-4-{4-[6-({(2S)-1-[(2S,4R)-4-hydroxy-2-({(1S)-1-[4-(4-methyl-1,3-thiazol-5-yl)phenyl]ethyl}carbamoyl)pyrrolidin-1-yl]-3,3-dimethyl-1-oxobutan-2-yl}carbamoyl)pyridin-2-yl]phenyl}-2,3,9-trimethyl-6H-thieno[3,2-f][1,2,4]triazolo[4,3-a][1,4]diazepin-6-yl]acetate] | 96 pM | 75 pM
10 | COC(=O)C[C@@H]1N=C(c2ccc(-c3ccc(OC(F)(F)C(=O)N[C@H](C(=O)N4C[C@H](O)C[C@H]4C(=O)N[C@@H](C)c4ccc(-c5scnc5C)cc4)C(C)(C)C)cc3)cc2)c2c(sc(C)c2C)-n2c(C)nnc21 [Example 122, methyl [(6S)-4-{4′-[1,1-difluoro-2-({(2S)-1-[(2S,4R)-4-hydroxy-2-({(1S)-1-[4-(4-methyl-1,3-thiazol-5-yl)phenyl]ethyl}carbamoyl)pyrrolidin-1-yl]-3,3-dimethyl-1-oxobutan-2-yl}amino)-2-oxoethoxy][1,1′-biphenyl]-4-yl}-2,3,9-trimethyl-6H-thieno[3,2-f][1,2,4]triazolo[4,3-a][1,4]diazepin-6-yl]acetate] | 400 pM | 97 pM
